Experimental data reported in patent publication US9796711B2, “Substituted pyrazolo[3,4-b]pyridin-6-carboxylic acids and method of use” (AbbVie S.àr.l., priority 2015, dated 2017).

Columns and labels:
ΔF508-CFTR [1] = target: T1, ΔF508-CFTR (Homo sapiens, UniProt P13569, DEL508-508); assay: CFTR cell surface levels using HRP-tagged ΔF508-CFTR expressing CFBE cells, in the presence of a co-corrector; assay type: cell-based; conditions: HRP-tagged ΔF508-CFTR expressing CFBE cells, in the presence of 3 μM co-corrector; for EC50: read-out: EC50
T1 construct: host or cells: CFBE41o-, doxycycline-inducible
T1 sequence (P13569 with tags, fused parts or gaps DEL508-508): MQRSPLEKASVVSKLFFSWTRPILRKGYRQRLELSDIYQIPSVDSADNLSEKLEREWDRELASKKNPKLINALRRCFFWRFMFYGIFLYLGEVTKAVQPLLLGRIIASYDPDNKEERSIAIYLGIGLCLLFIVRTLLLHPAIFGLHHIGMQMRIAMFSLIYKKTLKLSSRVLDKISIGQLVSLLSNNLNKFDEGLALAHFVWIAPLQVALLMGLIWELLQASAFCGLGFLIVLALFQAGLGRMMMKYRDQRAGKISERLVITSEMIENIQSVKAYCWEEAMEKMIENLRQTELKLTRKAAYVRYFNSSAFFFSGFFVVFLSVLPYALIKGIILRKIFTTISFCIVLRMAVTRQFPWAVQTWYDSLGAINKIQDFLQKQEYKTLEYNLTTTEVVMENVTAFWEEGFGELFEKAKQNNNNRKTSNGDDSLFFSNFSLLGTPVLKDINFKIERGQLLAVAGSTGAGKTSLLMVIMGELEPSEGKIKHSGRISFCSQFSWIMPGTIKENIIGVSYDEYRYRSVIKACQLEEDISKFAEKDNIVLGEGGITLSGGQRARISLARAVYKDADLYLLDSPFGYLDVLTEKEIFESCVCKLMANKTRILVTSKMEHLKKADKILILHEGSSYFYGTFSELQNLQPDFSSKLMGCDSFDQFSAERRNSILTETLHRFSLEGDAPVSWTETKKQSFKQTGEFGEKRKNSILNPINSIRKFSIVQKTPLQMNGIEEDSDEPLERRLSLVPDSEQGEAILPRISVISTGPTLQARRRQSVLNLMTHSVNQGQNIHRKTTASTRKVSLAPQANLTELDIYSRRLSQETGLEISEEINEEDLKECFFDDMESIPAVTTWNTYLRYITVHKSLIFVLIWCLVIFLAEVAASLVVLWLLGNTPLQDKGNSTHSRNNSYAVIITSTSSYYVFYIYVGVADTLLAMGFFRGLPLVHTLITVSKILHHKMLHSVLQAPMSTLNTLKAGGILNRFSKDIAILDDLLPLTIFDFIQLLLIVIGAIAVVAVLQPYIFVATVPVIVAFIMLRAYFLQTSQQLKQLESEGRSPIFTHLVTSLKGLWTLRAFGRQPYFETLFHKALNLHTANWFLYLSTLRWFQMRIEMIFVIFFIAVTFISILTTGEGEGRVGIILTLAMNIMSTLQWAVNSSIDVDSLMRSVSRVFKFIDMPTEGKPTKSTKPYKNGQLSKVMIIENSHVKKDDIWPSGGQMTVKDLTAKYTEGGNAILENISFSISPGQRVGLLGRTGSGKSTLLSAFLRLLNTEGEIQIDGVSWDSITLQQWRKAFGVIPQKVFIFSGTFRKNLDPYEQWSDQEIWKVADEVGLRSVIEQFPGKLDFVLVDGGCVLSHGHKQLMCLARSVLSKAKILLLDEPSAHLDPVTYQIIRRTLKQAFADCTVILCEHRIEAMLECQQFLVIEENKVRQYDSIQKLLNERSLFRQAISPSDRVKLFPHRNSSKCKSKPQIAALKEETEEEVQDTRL
Summary of the method: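 Cells were seeded with 0.5 μg/mL doxycycline and held 68 h at 37 °C. Test compounds plus 3 μM co-corrector (final 0.1% DMSO) were then added for 20 h at 33 °C. Washed cells received HRP substrate, and luminescence was normalized between DMSO and 3 μM co-corrector controls.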

ΔF508-CFTR [2] = target: T1, ΔF508-CFTR; assay: CFTR cell surface levels using HRP-tagged ΔF508-CFTR expressing CFBE cells, intrinsic corrector capacity; assay type: cell-based; conditions: for EC50: read-out: EC50
Summary of the method: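 Here the cells express ΔF508-CFTR with horseradish peroxidase inserted in extracellular loop 4, so only rescued channel at the surface gives luminescent signal. Compounds act on their own, 20 h at the reduced temperature of 33 °C; values are percent activity relative to DMSO and a 3 μM corrector.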

[3] = HRP-tagged ΔF508-CFTR expressing CFBE cells, intrinsic corrector capacity (no co-corrector), 33° C., 20 hours

In the case of `COC[C@H]1CCN(CC2CCN(c3cc(C(=O)O)nc4c3c(C3CCC3)nn4-c3ccccc3)CC2)C1` [compound 804, 3-cyclobutyl-4-(4-{[(3S)-3-(methoxymethyl)pyrrolidin-1-yl]methyl}piperidin-1-yl)-1-phenyl-1H-pyrazolo[3,4-b]pyridine-6-carboxylic acid], the “% Activation” value (ΔF508-CFTR [1]) is reported as 365%, the EC50 (ΔF508-CFTR [1]) is reported as 231 nM and the “% Activation” value (ΔF508-CFTR [2]; [3]) is reported as 191.15%. For the same compound, the EC50 (ΔF508-CFTR [2]; [3]) was 489 nM.

With `CC(C)c1nn(-c2ccc(F)cc2)c2nc(C(=O)O)cc(N3CCC(CN4CCCCC4)CC3)c12` [compound 790, 1-(4-fluorophenyl)-4-{4-[(piperidin-1-yl)methyl]piperidin-1-yl}-3-(propan-2-yl)-1H-pyrazolo[3,4-b]pyridine-6-carboxylic acid] the “% Activation” value (ΔF508-CFTR [1]) was 419.1%, the EC50 (ΔF508-CFTR [1]) was 181 nM and the “% Activation” value (ΔF508-CFTR [2]; [3]) was 193.7%. It also gave an EC50 (ΔF508-CFTR [2]; [3]) of 294 nM.

For `CCOC(=O)N1CCN(c2cc(C(=O)O)nc3c2c(C2CCC2)nn3-c2ccccc2)CC1` [compound 539, 3-cyclobutyl-4-[4-(ethoxycarbonyl)piperazin-1-yl]-1-phenyl-1H-pyrazolo[3,4-b]pyridine-6-carboxylic acid], the “% Activation” value (ΔF508-CFTR [1]) was 564.8%, the EC50 (ΔF508-CFTR [1]) was 198 nM and the “% Activation” value (ΔF508-CFTR [2]; [3]) was 366.3%. The EC50 (ΔF508-CFTR [2]; [3]) was 370 nM.

`O=C(O)c1cc(N2CCC(CCN3CCCC3)CC2)c2c(C3CCC3)nn(-c3ccccc3)c2n1` [compound 574, 3-cyclobutyl-1-phenyl-4-{4-[2-(pyrrolidin-1-yl)ethyl]piperidin-1-yl}-1H-pyrazolo[3,4-b]pyridine-6-carboxylic acid] was tested, and the “% Activation” value (ΔF508-CFTR [1]) was 469.5%, the EC50 (ΔF508-CFTR [1]) was 190 nM and the “% Activation” value (ΔF508-CFTR [2]; [3]) was 294%. The EC50 (ΔF508-CFTR [2]; [3]) was 479 nM.

With `Cc1cccc(-n2nc(C(C)C)c3c(N4CCC(CO)CC4)cc(C(=O)O)nc32)c1` [compound 213, 4-[4-(hydroxymethyl)piperidin-1-yl]-1-(3-methylphenyl)-3-(propan-2-yl)-1H-pyrazolo[3,4-b]pyridine-6-carboxylic acid] the “% Activation” value (ΔF508-CFTR [1]) was 456.97%, the EC50 (ΔF508-CFTR [1]) was 382 nM and the “% Activation” value (ΔF508-CFTR [2]; HRP-tagged ΔF508-CFTR CFBE41o- cells, compounds alone (intrinsic corrector capacity), 20 hours at 33° C., positive control 3 μM corrector) was 247.33%. The EC50 (ΔF508-CFTR [2]; HRP-tagged ΔF508-CFTR CFBE41o- cells, compounds alone (intrinsic corrector capacity), 20 hours at 33° C.) was 679 nM.

`O=C(O)c1cc(N2CCC(N3CCC(F)CC3)CC2)c2c(C3CCC3)nn(-c3ccc(F)cc3)c2n1` [compound 849, 3-cyclobutyl-4-(4-fluoro[1,4′-bipiperidin]-1′-yl)-1-(4-fluorophenyl)-1H-pyrazolo[3,4-b]pyridine-6-carboxylic acid] was tested, and the “% Activation” value (ΔF508-CFTR [1]) was 458.6%, the EC50 (ΔF508-CFTR [1]) was 231 nM and the “% Activation” value (ΔF508-CFTR [2]; [3]) was 249.1%. It also gave an EC50 (ΔF508-CFTR [2]; [3]) of 660 nM.
